Laboratory results reported in the NIST ThermoML archive (doi:10.1016/j.jct.2015.04.024).

Assay: mn = molality of the nth substance listed, in mol/kg
Details: 75 kPa, Liquid, Buoyancy - hydrostatic balance with magnetic suspension - one sinker

CC(N)C(=O)O (stereo not drawn) [DL-2-aminopropanoic acid] + O
Details | mass density [kg/m3]
275.63 K, m1 = 0.0294 | 1000.85
275.63 K, m1 = 0.04005 | 1001.17
275.63 K, m1 = 0.04974 | 1001.47
275.63 K, m1 = 0.0592 | 1001.76
275.63 K, m1 = 0.0695 | 1002.07
275.63 K, m1 = 0.08475 | 1002.53
275.63 K, m1 = 0.0911 | 1002.72
275.63 K, m1 = 0.1019 | 1003.05
276.13 K, m1 = 0.03044 | 1000.88
276.13 K, m1 = 0.04034 | 1001.19
276.13 K, m1 = 0.04918 | 1001.46
276.13 K, m1 = 0.05989 | 1001.78
276.13 K, m1 = 0.07063 | 1002.11
276.13 K, m1 = 0.07952 | 1002.37
276.13 K, m1 = 0.09022 | 1002.69
276.13 K, m1 = 0.09952 | 1002.98
276.69 K, m1 = 0.03006 | 1000.88
276.69 K, m1 = 0.04009 | 1001.19
276.69 K, m1 = 0.04963 | 1001.48
276.69 K, m1 = 0.0606 | 1001.81
276.69 K, m1 = 0.0711 | 1002.13
276.69 K, m1 = 0.07938 | 1002.37
276.69 K, m1 = 0.08509 | 1002.54
276.69 K, m1 = 0.09839 | 1002.95
277.12 K, m1 = 0.03044 | 1000.89
277.12 K, m1 = 0.04034 | 1001.19
277.12 K, m1 = 0.0492 | 1001.46
277.12 K, m1 = 0.05989 | 1001.78
277.12 K, m1 = 0.07063 | 1002.1
277.12 K, m1 = 0.07952 | 1002.37
277.12 K, m1 = 0.09022 | 1002.7
277.12 K, m1 = 0.09952 | 1002.97
277.67 K, m1 = 0.02944 | 1000.85
277.67 K, m1 = 0.04005 | 1001.17
277.67 K, m1 = 0.04974 | 1001.46
277.67 K, m1 = 0.0592 | 1001.74
277.67 K, m1 = 0.0695 | 1002.06
277.67 K, m1 = 0.08475 | 1002.51
277.67 K, m1 = 0.0911 | 1002.7
277.67 K, m1 = 0.1019 | 1003.04
278.12 K, m1 = 0.03078 | 1000.9
278.12 K, m1 = 0.03875 | 1001.11
278.12 K, m1 = 0.04963 | 1001.45
278.12 K, m1 = 0.05968 | 1001.76
278.12 K, m1 = 0.0709 | 1002.09
278.12 K, m1 = 0.07928 | 1002.34
278.12 K, m1 = 0.09099 | 1002.69
278.12 K, m1 = 0.1006 | 1002.98
278.65 K, m1 = 0.03078 | 1000.89
278.65 K, m1 = 0.03875 | 1001.13
278.65 K, m1 = 0.04963 | 1001.45
278.65 K, m1 = 0.05968 | 1001.75
278.65 K, m1 = 0.0709 | 1002.09
278.65 K, m1 = 0.07928 | 1002.34
278.65 K, m1 = 0.09099 | 1002.68
278.65 K, m1 = 0.1006 | 1002.96

NCC(=O)O [2-aminoacetic acid] + O
Details | mass density [kg/m3]
275.63 K, m1 = 0.02975 | 1000.98
275.63 K, m1 = 0.03917 | 1001.3
275.63 K, m1 = 0.05033 | 1001.69
275.63 K, m1 = 0.0596 | 1002
275.63 K, m1 = 0.07025 | 1002.37
275.63 K, m1 = 0.07948 | 1002.68
275.63 K, m1 = 0.089 | 1003.01
275.63 K, m1 = 0.09846 | 1003.34
276.13 K, m1 = 0.03055 | 1001.01
276.13 K, m1 = 0.04004 | 1001.34
276.13 K, m1 = 0.05063 | 1001.71
276.13 K, m1 = 0.05984 | 1002.02
276.13 K, m1 = 0.06886 | 1002.32
276.13 K, m1 = 0.08159 | 1002.76
276.13 K, m1 = 0.08976 | 1003.05
276.13 K, m1 = 0.1001 | 1003.39
276.69 K, m1 = 0.02962 | 1000.98
276.69 K, m1 = 0.03964 | 1001.32
276.69 K, m1 = 0.04889 | 1001.63
276.69 K, m1 = 0.06028 | 1002.02
276.69 K, m1 = 0.06972 | 1002.34
276.69 K, m1 = 0.07961 | 1002.68
276.69 K, m1 = 0.0885 | 1002.98
276.69 K, m1 = 0.1008 | 1003.39
277.12 K, m1 = 0.02962 | 1000.96
277.12 K, m1 = 0.03964 | 1001.31
277.12 K, m1 = 0.04889 | 1001.62
277.12 K, m1 = 0.06028 | 1002.01
277.12 K, m1 = 0.06972 | 1002.32
277.12 K, m1 = 0.07961 | 1002.66
277.12 K, m1 = 0.0885 | 1002.97
277.12 K, m1 = 0.1008 | 1003.38
277.67 K, m1 = 0.02975 | 1000.98
277.67 K, m1 = 0.03917 | 1001.3
277.67 K, m1 = 0.05033 | 1001.68
277.67 K, m1 = 0.0596 | 1002
277.67 K, m1 = 0.07025 | 1002.36
277.67 K, m1 = 0.07948 | 1002.67
277.67 K, m1 = 0.085 | 1002.85
277.67 K, m1 = 0.09846 | 1003.32
278.12 K, m1 = 0.02966 | 1000.97
278.12 K, m1 = 0.04207 | 1001.38
278.12 K, m1 = 0.05006 | 1001.65
278.12 K, m1 = 0.06152 | 1002.04
278.12 K, m1 = 0.06869 | 1002.28
278.12 K, m1 = 0.0814 | 1002.71
278.12 K, m1 = 0.08635 | 1002.88
278.12 K, m1 = 0.09984 | 1003.33
278.65 K, m1 = 0.02951 | 1000.95
278.65 K, m1 = 0.04154 | 1001.35
278.65 K, m1 = 0.04986 | 1001.64
278.65 K, m1 = 0.05429 | 1001.78
278.65 K, m1 = 0.07168 | 1002.36
278.65 K, m1 = 0.08119 | 1002.67
278.65 K, m1 = 0.0895 | 1002.96
278.65 K, m1 = 0.09674 | 1003.2

CCC(N)C(=O)O (stereo not drawn) [(.+-.)-α-aminobutyric acid] + O
Details | mass density [kg/m3]
275.63 K, m1 = 0.03017 | 1000.84
275.63 K, m1 = 0.03851 | 1001.09
275.63 K, m1 = 0.04794 | 1001.36
275.63 K, m1 = 0.06041 | 1001.72
275.63 K, m1 = 0.072 | 1002.07
275.63 K, m1 = 0.07612 | 1002.18
275.63 K, m1 = 0.08971 | 1002.58
275.63 K, m1 = 0.0967 | 1002.78
276.13 K, m1 = 0.03035 | 1000.85
276.13 K, m1 = 0.03896 | 1001.1
276.13 K, m1 = 0.04967 | 1001.42
276.13 K, m1 = 0.05823 | 1001.67
276.13 K, m1 = 0.07075 | 1002.03
276.13 K, m1 = 0.08046 | 1002.31
276.13 K, m1 = 0.0901 | 1002.6
276.13 K, m1 = 0.0968 | 1002.78
276.69 K, m1 = 0.0256 | 1000.72
276.69 K, m1 = 0.03484 | 1000.99
276.69 K, m1 = 0.04383 | 1001.25
276.69 K, m1 = 0.05138 | 1001.47
276.69 K, m1 = 0.06131 | 1001.77
276.69 K, m1 = 0.06872 | 1001.99
276.69 K, m1 = 0.0783 | 1002.24
276.69 K, m1 = 0.08694 | 1002.51
277.12 K, m1 = 0.03035 | 1000.86
277.12 K, m1 = 0.03896 | 1001.12
277.12 K, m1 = 0.04967 | 1001.42
277.12 K, m1 = 0.05823 | 1001.68
277.12 K, m1 = 0.07075 | 1002.04
277.12 K, m1 = 0.08046 | 1002.31
277.12 K, m1 = 0.0901 | 1002.6
277.12 K, m1 = 0.0968 | 1002.79
277.67 K, m1 = 0.0256 | 1000.71
277.67 K, m1 = 0.03484 | 1000.99
277.67 K, m1 = 0.04383 | 1001.25
277.67 K, m1 = 0.05138 | 1001.47
277.67 K, m1 = 0.06131 | 1001.76
277.67 K, m1 = 0.06872 | 1001.99
277.67 K, m1 = 0.0783 | 1002.25
277.67 K, m1 = 0.08694 | 1002.51
278.12 K, m1 = 0.03122 | 1000.86
278.12 K, m1 = 0.04081 | 1001.16
278.12 K, m1 = 0.04913 | 1001.38
278.12 K, m1 = 0.05983 | 1001.72
278.12 K, m1 = 0.07098 | 1002.05
278.12 K, m1 = 0.08031 | 1002.3
278.12 K, m1 = 0.09051 | 1002.6
278.12 K, m1 = 0.09974 | 1002.85
278.65 K, m1 = 0.0312 | 1000.86
278.65 K, m1 = 0.04081 | 1001.12
278.65 K, m1 = 0.04913 | 1001.35
278.65 K, m1 = 0.05983 | 1001.67
278.65 K, m1 = 0.07098 | 1002
278.65 K, m1 = 0.08031 | 1002.27
278.65 K, m1 = 0.09051 | 1002.57
278.65 K, m1 = 0.0997 | 1002.85
